Data reported in ChEMBL document CHEMBL1201862, “PubChem BioAssay data set” (2004).
The source made the active and inactive calls.

Legend:
[1] = biological target: T1, Heat shock factor protein 1 (Mus musculus, UniProt P38532); assay: inhibition of MG132-induced HSE-luciferase signal, confirmation, cell-based, NIH3T3, luminescence, dose retest (AID 2382); type: functional;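 note: NIH3T3 fibroblasts with HSF1-driven luciferase reporter stressed by proteasome inhibitor MG132; luminescence from HSF1-driven luciferase expression after 8 hours of MG132 stress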
T1 sequence (P38532 whole entry): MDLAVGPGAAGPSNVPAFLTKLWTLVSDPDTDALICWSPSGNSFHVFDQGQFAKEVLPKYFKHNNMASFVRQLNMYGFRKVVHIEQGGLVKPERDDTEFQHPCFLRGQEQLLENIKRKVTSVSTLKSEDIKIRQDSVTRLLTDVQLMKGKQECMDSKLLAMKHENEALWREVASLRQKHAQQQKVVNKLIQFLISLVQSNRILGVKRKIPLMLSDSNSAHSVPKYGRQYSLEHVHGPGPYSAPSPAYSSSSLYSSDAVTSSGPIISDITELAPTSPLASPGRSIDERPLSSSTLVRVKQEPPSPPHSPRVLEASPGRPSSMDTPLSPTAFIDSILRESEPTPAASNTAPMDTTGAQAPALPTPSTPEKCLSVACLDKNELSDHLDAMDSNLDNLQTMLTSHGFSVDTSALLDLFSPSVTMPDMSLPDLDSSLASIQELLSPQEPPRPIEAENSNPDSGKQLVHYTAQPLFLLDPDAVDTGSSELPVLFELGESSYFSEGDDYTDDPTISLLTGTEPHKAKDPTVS

Mucolipin-3 = biological target: T2, Mucolipin-3 (Homo sapiens, UniProt Q8TDD5); assay: Dose response cell-based high-throughput screening assay for agonists of the transient receptor potential channel ML3 (TRPML3). [Related pubchem assays: 1526, 1424, 1448 ]; type: functional
T2 sequence (Q8TDD5 whole entry): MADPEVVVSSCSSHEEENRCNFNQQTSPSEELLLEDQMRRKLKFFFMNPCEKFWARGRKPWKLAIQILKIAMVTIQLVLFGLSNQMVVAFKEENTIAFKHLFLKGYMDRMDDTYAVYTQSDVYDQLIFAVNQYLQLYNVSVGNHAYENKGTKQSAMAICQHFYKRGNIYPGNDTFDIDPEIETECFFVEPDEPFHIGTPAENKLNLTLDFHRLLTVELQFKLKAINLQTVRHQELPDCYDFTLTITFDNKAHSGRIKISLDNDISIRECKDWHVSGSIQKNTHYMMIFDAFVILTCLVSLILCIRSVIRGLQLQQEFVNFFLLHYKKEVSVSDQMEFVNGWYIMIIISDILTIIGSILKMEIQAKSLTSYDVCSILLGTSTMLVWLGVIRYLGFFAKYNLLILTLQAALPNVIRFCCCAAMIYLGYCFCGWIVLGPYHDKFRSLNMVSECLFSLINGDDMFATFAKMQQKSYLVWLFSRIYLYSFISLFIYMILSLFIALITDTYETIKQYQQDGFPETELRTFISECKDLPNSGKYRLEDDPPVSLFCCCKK

Ion channel NompC = Ion channel NompC (Danio rerio, UniProt Q7T1G6); assay: Fluorescence counterscreen assay for TRPML3 agonists: dose response cell-based high-throughput screening assay to identify agonists of the transient receptor potential channel N1 (TRPN1). [Related pubchem assays: 1526, 1424, 1448 ]; type: functional
Aminopeptidase N = biological target: T3, Aminopeptidase N (Plasmodium falciparum FcB1/Columbia, UniProt O96935); assay: P. falciparum M1AAP inhibitors, biochemical, fluorogenic H-Leu-NHMec substrate, 1536-well (AID 1445); set-up: species or system Plasmodium falciparum 3D7, 3D7
T3 sequence (O96935 whole entry): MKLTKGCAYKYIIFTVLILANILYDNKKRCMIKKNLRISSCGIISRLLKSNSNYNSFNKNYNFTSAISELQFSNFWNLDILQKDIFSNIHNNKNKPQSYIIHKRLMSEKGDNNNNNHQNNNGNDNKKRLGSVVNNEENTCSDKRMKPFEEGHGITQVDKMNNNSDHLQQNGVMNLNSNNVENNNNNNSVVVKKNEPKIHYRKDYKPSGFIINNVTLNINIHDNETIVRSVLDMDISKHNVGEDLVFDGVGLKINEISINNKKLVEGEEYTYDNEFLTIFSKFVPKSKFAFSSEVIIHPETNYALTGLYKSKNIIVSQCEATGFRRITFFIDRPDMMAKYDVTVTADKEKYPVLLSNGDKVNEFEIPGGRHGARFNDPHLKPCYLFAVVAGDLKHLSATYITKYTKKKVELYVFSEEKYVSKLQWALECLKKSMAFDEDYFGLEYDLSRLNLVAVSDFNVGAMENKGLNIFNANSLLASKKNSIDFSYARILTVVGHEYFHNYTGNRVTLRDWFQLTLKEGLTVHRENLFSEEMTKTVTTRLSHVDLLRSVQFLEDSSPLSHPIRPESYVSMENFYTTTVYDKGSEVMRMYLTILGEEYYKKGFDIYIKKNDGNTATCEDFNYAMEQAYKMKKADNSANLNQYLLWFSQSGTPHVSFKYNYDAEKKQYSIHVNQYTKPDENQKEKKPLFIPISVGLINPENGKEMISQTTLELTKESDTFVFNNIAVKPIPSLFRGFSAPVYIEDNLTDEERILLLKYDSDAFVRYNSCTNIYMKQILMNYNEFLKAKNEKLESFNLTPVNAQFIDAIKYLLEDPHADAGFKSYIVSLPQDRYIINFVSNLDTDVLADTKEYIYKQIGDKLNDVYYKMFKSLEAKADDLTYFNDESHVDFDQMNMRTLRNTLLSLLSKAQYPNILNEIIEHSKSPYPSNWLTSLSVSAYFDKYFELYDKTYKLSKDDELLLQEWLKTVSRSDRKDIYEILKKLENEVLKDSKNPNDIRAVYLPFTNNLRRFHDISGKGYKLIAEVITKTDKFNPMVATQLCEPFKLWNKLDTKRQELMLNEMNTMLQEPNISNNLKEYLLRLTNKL

[2] = inhibitors of Bluetongue virus cytopathic effect, confirmation, arbovirus, BSR cells (AID 1250); type: functional;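 note: protection from viral cytopathic effect measured as cell viability by ATP luminescence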
NS3 = NS3 (Hepatitis C virus, UniProt A3EZJ3); assay: PubChem AID 2173; set-up: species or system Hepacivirus hominis
[3] = biological target: T4, Short transient receptor potential channel 4 (Mus musculus, UniProt Q9QUQ5); assay: mouse TRPC4 channel activators, dose response, cell-based, HEK293 TRPC4/mu-opioid, Fluo-4 calcium (AID 434937); type: functional
T4 sequence (Q9QUQ5 whole entry): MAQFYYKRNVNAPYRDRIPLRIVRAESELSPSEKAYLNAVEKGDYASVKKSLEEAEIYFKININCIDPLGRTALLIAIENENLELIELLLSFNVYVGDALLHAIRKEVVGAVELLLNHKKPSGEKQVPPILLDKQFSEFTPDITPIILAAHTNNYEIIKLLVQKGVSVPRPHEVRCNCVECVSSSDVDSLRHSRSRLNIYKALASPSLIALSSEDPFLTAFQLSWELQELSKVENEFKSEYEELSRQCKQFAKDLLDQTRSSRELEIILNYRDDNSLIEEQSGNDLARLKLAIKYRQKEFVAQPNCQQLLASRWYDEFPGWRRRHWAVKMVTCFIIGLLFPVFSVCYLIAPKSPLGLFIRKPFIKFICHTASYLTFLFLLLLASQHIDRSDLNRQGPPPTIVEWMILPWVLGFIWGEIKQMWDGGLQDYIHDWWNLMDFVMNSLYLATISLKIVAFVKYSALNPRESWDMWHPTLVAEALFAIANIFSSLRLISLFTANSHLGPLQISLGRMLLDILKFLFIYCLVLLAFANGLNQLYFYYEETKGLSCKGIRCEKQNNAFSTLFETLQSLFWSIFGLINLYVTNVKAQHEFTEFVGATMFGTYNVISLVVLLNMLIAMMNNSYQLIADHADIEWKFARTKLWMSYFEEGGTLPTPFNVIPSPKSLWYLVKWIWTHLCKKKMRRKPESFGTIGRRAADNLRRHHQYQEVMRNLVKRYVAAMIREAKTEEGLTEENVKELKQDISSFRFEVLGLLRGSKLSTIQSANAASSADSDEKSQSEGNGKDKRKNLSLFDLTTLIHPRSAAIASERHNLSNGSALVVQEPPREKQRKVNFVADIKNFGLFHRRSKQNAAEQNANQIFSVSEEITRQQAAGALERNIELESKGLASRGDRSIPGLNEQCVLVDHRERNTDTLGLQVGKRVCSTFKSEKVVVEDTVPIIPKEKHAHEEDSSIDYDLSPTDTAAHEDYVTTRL

[4] = enhancers of respiration in Yfh1-depleted yeast, dose response, Friedreich's ataxia, plus single-dose screen (AID 1465); type: functional;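 note: yeast depleted of Yfh1p frataxin homolog grown on glycerol needing respiration; WST-1 tetrazolium dye reduction as measure of cellular dehydrogenase metabolic activity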
[5] = biological target: Lysosomal acid glucosylceramidase (Homo sapiens, UniProt P04062); assay: Dose response cell-based high throughput screening assay to identify enhancers of beta-glucosidase activity. [Related pubchem assays: 784 ]; type: functional
[6] = biological target: T5, Eukaryotic translation initiation factor 2-alpha kinase 3 (Homo sapiens, UniProt Q9NZJ5); assay: Dose response cell-based high-throughput screening assay to measure PERK inhibition. [Related pubchem assays: 1416 ]; type: functional
[7] = biological target: T5, Eukaryotic translation initiation factor 2-alpha kinase 3; assay: Counterscreen assay for PERK inhibitors: Dose response cell-based high throughput screening assay to measure inhibition of PERK at 6 hours. [Related pubchem assays: 1522, 1416 ]; type: functional
[8] = biological target: T6, Corticotropin-releasing factor receptor 2/Corticotropin-releasing factor-binding protein (Homo sapiens, UniProt P24387+Q13324); assay: Dose Response confirmation of uHTS hits for small molecule antagonists of the CRF-binding protein and CRF-R2 receptor complex.; type: functional; settings: read-out: IC50_Mean
T6 sequence (Q13324 whole entry): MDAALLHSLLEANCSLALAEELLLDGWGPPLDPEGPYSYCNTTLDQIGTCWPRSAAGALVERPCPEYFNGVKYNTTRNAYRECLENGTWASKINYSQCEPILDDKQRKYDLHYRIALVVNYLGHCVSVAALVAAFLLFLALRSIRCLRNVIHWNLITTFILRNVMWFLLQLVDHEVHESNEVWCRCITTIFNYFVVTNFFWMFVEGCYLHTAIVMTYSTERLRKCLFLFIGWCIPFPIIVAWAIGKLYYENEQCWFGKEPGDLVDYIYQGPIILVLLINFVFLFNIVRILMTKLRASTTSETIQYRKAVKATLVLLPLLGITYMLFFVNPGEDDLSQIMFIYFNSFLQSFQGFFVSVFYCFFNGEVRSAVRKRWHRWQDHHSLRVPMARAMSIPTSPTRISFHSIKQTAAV
T6 sequence (P24387 whole entry): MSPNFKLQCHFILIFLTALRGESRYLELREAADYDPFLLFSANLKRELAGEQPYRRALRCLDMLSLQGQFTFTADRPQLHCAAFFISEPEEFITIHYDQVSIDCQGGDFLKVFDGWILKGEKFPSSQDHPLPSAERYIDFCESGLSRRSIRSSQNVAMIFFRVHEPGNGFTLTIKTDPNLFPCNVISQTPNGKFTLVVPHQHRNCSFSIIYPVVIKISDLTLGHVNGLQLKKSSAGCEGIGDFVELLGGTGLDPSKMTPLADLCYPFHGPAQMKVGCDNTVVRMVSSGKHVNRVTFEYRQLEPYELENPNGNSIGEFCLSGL

[9] = biological target: T6, Corticotropin-releasing factor receptor 2/Corticotropin-releasing factor-binding protein; assay: activators of CRF receptor 2 with binding protein – uHTS hits, confirmation (AID 602473); type: functional; settings: read-out: EC50_Mean
cells [10] = type: functional, cell-based
[11] = Luminescence-based counterscreen assay for KLF5 inhibitors: dose response cell-based high throughput screening assay to identify cytotoxic compounds using the IEC-6 intestinal epithelial cell line. [Related pubchem assays: 1700 (Primary screen.), 1834 (Confirmation screen.), 1858 (Summary AID.), 1905 (Counterscreen.)]; type: functional
cells [12] = type: functional, cell-based; remark: listed apart in the source
INS1 = assay: beta cell apoptosis inhibitors, cytokine rescue, dose response, luminescence, retest (AID 449756); type: functional, cell-based; settings: Rattus norvegicus;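 note: cell death triggered by IL-1 beta plus TNF-alpha plus IFN-gamma mixture; protective hits raise ATP signal compared with cytokine alone wells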
[13] = biological target: G2/mitotic-specific cyclin-B1 (Homo sapiens, UniProt P14635); assay: Counterscreen assay for inhibitors of Wee1 degradation: dose response cell-based assay to identify inhibitors of cyclin B degradation. [Related pubchem assays: 1410, 1321 ]; type: functional
Wee1-like protein kinase = Wee1-like protein kinase (Homo sapiens, UniProt P30291); assay: Dose Response Cell-based Assay for Inhibitors of Wee1 Degradation. [Related pubchem assays: 1410, 1321 ]; type: functional
[14] = Vero cell cytotoxicity, dose response, cytotoxicity control for Vif-APOBEC3G degradation inhibitor project, Vero cells (AID 1117358); type: functional; settings: Human immunodeficiency virus 1, Vero
[15] = biological target: Potassium voltage-gated channel subfamily KQT member 2 (Rattus norvegicus, UniProt O88943); assay: Mode of action assay - current amplitude concentration response for derivatives of ZTZ240, a potentiator of KCNQ2 potassium channels. [Related pubchem assays: 2258 (Summary assay for the KCNQ2 potentiators.), 2239 (Primary HTS assay for KCNQ2 potentiators with 305606 compounds tested, and 1644 are found to be active.)]; type: functional
[16] = biological target: Metabotropic glutamate receptor 4 (Homo sapiens, UniProt Q14833); assay: Modulation of the Metabotropic Glutamate Receptor mGluR4: Calcium Assay. [Related pubchem assays: 2180, 2199, 2193, 2179, 2182, 2183, 2191, 2181, 2190, 2188, 2185, 2197 ]; type: functional
Sequence of Metabotropic glutamate receptor 4 (Q14833 whole entry): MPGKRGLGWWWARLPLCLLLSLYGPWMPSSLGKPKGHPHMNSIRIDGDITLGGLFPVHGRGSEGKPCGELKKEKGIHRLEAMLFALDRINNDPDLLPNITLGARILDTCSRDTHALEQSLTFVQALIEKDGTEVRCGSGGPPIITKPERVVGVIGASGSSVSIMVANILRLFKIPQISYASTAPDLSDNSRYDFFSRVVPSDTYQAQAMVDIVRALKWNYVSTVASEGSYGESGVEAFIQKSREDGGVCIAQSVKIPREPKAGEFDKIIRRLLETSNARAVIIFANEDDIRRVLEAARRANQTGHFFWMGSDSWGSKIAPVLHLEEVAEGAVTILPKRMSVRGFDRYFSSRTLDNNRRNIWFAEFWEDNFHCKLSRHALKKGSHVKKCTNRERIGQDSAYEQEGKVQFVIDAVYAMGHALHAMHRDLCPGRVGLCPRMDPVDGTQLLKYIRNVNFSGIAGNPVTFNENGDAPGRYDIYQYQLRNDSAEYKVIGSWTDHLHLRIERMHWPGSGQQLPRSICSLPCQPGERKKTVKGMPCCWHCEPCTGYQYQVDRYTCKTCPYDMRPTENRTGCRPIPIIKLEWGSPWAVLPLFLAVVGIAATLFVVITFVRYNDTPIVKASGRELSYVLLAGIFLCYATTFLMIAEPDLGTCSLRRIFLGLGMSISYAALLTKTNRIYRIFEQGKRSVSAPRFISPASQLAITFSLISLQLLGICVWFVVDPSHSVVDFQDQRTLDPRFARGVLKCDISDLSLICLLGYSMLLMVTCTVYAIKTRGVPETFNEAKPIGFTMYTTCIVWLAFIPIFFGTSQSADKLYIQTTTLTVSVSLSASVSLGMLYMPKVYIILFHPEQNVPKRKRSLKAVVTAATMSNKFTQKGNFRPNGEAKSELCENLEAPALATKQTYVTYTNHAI

T5 sequence (Q9NZJ5 whole entry): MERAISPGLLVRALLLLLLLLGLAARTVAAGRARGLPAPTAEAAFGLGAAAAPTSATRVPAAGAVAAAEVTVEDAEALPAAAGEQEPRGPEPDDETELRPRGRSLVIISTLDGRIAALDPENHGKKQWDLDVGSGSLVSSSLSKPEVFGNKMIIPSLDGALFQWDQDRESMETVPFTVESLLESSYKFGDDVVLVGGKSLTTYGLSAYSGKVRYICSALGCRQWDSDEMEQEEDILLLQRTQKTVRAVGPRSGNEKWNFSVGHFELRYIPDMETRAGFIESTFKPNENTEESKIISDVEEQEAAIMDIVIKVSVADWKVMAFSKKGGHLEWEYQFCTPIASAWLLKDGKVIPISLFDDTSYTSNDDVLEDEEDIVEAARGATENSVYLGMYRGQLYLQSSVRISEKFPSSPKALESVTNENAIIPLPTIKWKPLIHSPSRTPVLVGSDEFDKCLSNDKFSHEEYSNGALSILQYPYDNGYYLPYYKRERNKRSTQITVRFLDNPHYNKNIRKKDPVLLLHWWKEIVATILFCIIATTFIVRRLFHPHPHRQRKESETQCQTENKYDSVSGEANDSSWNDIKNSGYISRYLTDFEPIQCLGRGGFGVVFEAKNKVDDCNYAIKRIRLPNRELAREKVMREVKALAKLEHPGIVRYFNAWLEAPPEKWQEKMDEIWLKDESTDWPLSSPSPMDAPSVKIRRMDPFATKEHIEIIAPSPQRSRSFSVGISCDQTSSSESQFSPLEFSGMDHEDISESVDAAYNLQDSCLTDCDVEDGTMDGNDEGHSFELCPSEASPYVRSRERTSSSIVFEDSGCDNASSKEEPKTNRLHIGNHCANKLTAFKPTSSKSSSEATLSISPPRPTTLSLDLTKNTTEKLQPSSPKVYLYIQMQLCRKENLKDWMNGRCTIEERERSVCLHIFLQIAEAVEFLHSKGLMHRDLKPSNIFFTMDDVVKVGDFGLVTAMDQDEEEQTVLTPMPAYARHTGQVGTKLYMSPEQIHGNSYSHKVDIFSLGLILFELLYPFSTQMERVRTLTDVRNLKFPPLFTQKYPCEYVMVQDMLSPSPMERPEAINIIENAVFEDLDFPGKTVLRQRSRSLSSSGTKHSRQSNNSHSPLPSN
Sequence of G2/mitotic-specific cyclin-B1 (P14635 whole entry): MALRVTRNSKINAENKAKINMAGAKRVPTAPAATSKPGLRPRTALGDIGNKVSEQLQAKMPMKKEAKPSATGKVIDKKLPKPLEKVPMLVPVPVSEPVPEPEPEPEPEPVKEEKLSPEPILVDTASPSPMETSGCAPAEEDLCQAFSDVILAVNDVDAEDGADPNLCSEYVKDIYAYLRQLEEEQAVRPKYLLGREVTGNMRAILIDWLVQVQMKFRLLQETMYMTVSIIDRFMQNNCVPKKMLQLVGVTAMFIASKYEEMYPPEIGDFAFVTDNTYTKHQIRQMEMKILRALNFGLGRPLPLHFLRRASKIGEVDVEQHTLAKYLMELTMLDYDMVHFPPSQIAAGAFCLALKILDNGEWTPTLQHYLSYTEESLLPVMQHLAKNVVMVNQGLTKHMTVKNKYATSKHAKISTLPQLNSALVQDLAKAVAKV
Sequence of Lysosomal acid glucosylceramidase (P04062 whole entry): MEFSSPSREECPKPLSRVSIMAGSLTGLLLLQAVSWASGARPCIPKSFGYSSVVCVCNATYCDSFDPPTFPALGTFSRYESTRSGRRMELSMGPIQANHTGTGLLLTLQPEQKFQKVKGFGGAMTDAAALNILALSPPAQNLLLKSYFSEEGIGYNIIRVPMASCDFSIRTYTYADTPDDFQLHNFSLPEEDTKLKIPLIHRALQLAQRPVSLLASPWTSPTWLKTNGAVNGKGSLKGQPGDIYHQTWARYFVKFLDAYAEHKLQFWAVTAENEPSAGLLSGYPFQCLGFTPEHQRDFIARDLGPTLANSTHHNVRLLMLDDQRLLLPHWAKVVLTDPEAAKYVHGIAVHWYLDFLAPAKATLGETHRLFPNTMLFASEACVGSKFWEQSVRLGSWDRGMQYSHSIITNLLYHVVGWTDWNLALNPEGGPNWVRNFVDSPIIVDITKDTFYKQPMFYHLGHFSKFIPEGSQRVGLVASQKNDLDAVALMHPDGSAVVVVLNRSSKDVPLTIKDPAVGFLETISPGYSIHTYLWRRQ
Sequence of NS3 (A3EZJ3 whole entry): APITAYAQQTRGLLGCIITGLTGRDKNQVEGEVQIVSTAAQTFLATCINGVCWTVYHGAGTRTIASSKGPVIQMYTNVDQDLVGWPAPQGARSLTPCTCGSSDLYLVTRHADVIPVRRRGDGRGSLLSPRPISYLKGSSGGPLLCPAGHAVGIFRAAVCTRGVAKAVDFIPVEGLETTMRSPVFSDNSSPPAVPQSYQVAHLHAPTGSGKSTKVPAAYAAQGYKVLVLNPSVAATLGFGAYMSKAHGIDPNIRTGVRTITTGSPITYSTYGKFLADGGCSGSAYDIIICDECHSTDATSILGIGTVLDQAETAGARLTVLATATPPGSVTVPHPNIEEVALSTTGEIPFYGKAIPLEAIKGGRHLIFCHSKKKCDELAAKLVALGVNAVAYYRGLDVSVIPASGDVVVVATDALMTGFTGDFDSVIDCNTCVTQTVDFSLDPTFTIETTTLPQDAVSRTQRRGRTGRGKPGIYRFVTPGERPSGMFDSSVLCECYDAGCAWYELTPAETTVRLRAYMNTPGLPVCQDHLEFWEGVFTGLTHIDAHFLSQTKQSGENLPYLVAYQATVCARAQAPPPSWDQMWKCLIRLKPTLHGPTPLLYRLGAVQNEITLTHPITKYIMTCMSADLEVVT
Sequence of Potassium voltage-gated channel subfamily KQT member 2 (O88943 whole entry): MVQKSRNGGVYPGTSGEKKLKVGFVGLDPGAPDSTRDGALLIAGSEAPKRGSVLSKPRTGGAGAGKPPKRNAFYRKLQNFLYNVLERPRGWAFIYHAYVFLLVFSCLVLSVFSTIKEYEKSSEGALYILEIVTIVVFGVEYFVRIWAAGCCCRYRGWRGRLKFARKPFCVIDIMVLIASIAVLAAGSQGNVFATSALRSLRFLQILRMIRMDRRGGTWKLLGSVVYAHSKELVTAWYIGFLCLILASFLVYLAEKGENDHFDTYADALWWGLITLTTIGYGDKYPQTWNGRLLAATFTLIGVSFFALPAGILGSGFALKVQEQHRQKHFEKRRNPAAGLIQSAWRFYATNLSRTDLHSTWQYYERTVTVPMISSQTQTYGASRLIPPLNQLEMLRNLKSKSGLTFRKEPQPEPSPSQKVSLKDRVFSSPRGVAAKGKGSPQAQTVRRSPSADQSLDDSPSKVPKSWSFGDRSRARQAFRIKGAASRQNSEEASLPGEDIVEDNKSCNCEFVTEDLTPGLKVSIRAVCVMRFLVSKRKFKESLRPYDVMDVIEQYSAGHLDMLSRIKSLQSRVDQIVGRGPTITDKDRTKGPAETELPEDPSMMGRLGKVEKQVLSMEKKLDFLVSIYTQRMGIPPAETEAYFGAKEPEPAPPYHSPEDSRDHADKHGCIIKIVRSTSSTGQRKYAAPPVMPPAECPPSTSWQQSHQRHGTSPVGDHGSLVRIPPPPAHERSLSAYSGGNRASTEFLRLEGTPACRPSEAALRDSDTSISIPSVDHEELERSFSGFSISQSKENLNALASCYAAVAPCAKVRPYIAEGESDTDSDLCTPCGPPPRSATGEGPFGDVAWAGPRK

Cc1ccc(NC(=O)c2cnc(N3CCN(c4ccccn4)CC3)c3ccccc23)c(Br)c1
EC50 [1]: 8.67 µM (active) | EC50 (Mucolipin-3): 4.96 µM (active) | EC50 (Ion channel NompC): > 29.9 µM (not active)

CS(=O)(=O)C1=NSC2=NC(=O)/C(=C\c3ccc(-c4ccccc4)o3)C(=N)N21
IC50 (Aminopeptidase N): 71.1 µM (active) | IC50 [2]: 36 µM (active)

Cc1occc1C(=O)NNC(=S)NC(=O)COc1ccc(Cl)cc1Cl
IC50 (NS3): 15.2 µM (not active) | EC50 [3]: 5.96 µM (active)

CCOc1ccc(N=Nc2c(=O)[nH]n3c(C)cc(C)nc23)cc1
EC50 [4]: > 100 µM (active)

C=CCSC1=N/C(=C\c2ccsc2)C(=O)S1
EC50 [5]: > 50 µM (not active)

C=CCN(c1ccccc1)S(=O)(=O)c1cccc(C(=O)O)c1
EC50 [6]: > 55.7 µM (not active) | EC50 [7]: > 55.7 µM (not active) | IC50 [8]: > 47.1 µM (inactive) | EC50 [9]: > 53 µM (inactive)

O=C(N/N=C/c1cc(Br)ccc1OC(=O)c1ccc(Br)cc1)c1ccncc1
EC50 (cells [10]): 20 µM (active) | IC50 [11]: 5.99 µM (active) | EC50 (cells [12]): 121 µM (active) | AC50 (INS1): 2.29 µM (active)

COc1ccc(/C=N/NC(=O)c2ccc3ccccc3c2)cc1OS(=O)(=O)c1ccc(NC(C)=O)cc1
EC50 [13]: > 49.7 µM (not active) | EC50 (Wee1-like protein kinase): > 49.7 µM (not active) | CC50 [14]: > 40 µM (active)

O=C(Nc1ccc(Cl)nc1)c1ccc(F)c(F)c1
EC50 [15]: 14.4 µM (active)

COc1nc(NC(=O)c2ccccn2)ccc1Cl
EC50 [16]: 6.4 µM (active)
